# Measurements reported in PMC11678116 (Molecules, 2024).
# Several values for one entry are separate records, joined by “and”; a condition that tells them apart may be missing. Equal values may be shown once. Read-outs that look alike come from different tables or passages of the source. Marks after values point to notes of the source that are not given here.
# Legend:
# [1] = tested on: P. falciparum 3D7 (Pf3D7); assay: In vitro drug sensitivity assay (HRP2-ELISA) against erythrocytic stage, CQ-sensitive strain; format: cell-based; conditions: Plasmodium falciparum, mean ± SD (n ≥ 2)
# Experimental: Briefly, 96-well plates were pre-coated with the tested compounds in a three-fold dilution before ring-stage parasites were added to the complete culture medium at a haematocrit of 1.5% and a parasitaemia of 0.05%. […] All compounds were evaluated in duplicate in at least two independent experiments. The IC50 was determined by non-linear regression analysis of log concentration-response curves using the drc-package v0.9.0 of R v2.6.1 [42].
# HepG2 cells = assay: In vitro cytotoxicity, neutral red assay; format: cell-based; conditions: Homo sapiens, HepG2, 24 h, one day of incubation, mean ± SD (n ≥ 2)
# Experimental: The cytotoxicity of the second-generation harmiquins 33–45 was assessed against HepG2 cells to determine the selectivity of the tested compounds towards P. falciparum in comparison to mammalian cells (Table 4).
# Cytotoxicity against a human cell line (HepG2) was evaluated using the neutral red assay with minor modifications. In brief, human cells were seeded to a 96-well plate in a complete culture medium; on the following day, a serial dilution of the respective compound was added. After one day of incubation, cytotoxicity was evaluated by the addition of neutral red, subsequent lysis of cells, and measurement of absorbance (540 nm) in a plate reader (CLARIOstar, BMG Labtech). The IC50 was determined similarly to the in vitro drug assay against P. falciparum. To assess the safety of a compound, SI was calculated as the fractional ratio between the IC50s for HepG2 and P. falciparum 3D7 strain.
# [2] = tested on: P. falciparum Dd2 (PfDd2); assay: microbe, parasite or virus in culture; format: cell-based; conditions: Plasmodium falciparum, DD2, read-out: IC50 PfDd2
# Experimental: The resistance index (RI), which represents a ratio between IC50 obtained against PfDd2 and Pf3D7, was also calculated (Table 3).
# Briefly, 96-well plates were pre-coated with the tested compounds in a three-fold dilution before ring-stage parasites were added to the complete culture medium at a haematocrit of 1.5% and a parasitaemia of 0.05%. After three days of incubation at 37 °C, 5% CO2, and 5% oxygen, plates were frozen until analysed by HRP2-ELISA. All compounds were evaluated in duplicate in at least two independent experiments. The IC50 was determined by non-linear regression analysis of log concentration-response curves using the drc-package v0.9.0 of R v2.6.1 [42].
# [3] = target: T1, human serum albumin (HSA) (Homo sapiens, UniProt P02768); assay: Fluorimetric titration with HSA
# Experimental: (§3) The electronic absorption (UV/vis) spectra were recorded on a Varian Cary 100 Bio spectrophotometer (Varian, Inc., Palo Alto, CA, USA). Fluorescence measurements were performed on a Varian Cary Eclipse fluorimeter (Varian, Inc., CA, USA), taking care that the absorbance of a sample at the excitation wavelength was > 0.05 to avoid any impact of the inner filter effect.
# (§4) Human serum albumin was purchased from Sigma-Aldrich (Sigma-Aldrich, St. Louis, MO, USA) supplier, and dissolved in milli Q (MQ) water.
# (§5) Fluorimetric titration experiments were performed by adding aliquots of the polynucleotide stock solution into the solution of the studied dye. […] In both sets of experiments (fluorimetric and CD titrations), a buffer background was subtracted from each spectrum. Every reported spectrophotometric titration was the average of at least two measurements.
# poly(dAdT)2 = format: binding
# From the text: (§1) The titration data are processed by a non-linear fitting procedure to the Scatchard equation [44, 45, 46], yielding binding constants (Supplemental Information, Figures S5–S12, Table 6).
# (§2) Polynucleotides were purchased as noted: calf thymus (ct) DNA, poly dAdT–poly dAdT, poly dGdC–poly dGdC, and poly A–poly U (Sigma Aldrich, St. Louis, MO, USA), and dissolved in sodium cacodylate buffer (I = 0.05 M, pH = 7.0).
# calf thymus (ct)-DNA = format: binding; conditions: for log Ks ctDNA: pH 7; for ΔInt ctDNA: ΔInt = Int(100% complex)/Int0
# From the text: as §1, §2
# [4] = target: T1, human serum albumin (HSA); assay: biochemical
# Experimental: as §3, §4, §5
# [5] = target: poly A–poly U (pApU, ds-RNA); assay: Fluorimetric titration with poly A–poly U; format: binding
# Experimental: The strong emission and favourable Stokes shift of emission maxima allowed the performance of fluorimetric titrations with ds-DNA/RNA at very low (5 µM) concentrations of investigated compounds.
# as §1, §2
# [6] = tested on: P. falciparum 3D7 (Pf3D7); conditions: CQ-sensitive strain; cited from earlier work
# [7] = tested on: P. falciparum Dd2 (PfDd2); conditions: multi-drug resistant strain; cited from earlier work
# T1 sequence (P02768 25-609): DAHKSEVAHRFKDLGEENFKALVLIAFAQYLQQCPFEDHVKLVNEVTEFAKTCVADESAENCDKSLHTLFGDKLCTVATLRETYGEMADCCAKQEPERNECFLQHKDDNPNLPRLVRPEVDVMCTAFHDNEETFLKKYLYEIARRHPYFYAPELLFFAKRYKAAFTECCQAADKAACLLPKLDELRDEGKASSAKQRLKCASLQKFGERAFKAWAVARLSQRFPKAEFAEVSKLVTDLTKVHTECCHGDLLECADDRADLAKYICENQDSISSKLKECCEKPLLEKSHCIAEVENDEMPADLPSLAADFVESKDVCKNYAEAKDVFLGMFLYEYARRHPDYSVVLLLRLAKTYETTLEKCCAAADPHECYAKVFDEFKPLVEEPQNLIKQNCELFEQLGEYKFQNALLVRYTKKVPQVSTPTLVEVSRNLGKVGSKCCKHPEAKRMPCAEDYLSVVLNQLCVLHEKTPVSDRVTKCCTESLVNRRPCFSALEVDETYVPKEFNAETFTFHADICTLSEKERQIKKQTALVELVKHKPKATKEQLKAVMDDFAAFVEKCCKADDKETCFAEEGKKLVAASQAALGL
SMILES,IC50 [1],IC50 (HepG2 cells),IC50 [2],further results
"CCCOc1ccc2c(c1)c1ccnc(C)c1n2Cc1cn(CCNc2ccnc3cc(Cl)ccc23)nn1 [Compound 42, 7-Chloro-N-(2-(4-((1-methyl-6-propoxy-9H-pyrido[3,4-b]indol-9-yl)methyl)-1H-1,2,3-triazol-1-yl)ethyl)quinolin-4-amine]",7.6 ± 0.2 nM,20300 ± 1600 nM,15.5 ± 1.7 nM,
"CC(C)c1nccc2c3ccccc3n(Cc3cn(CCNc4ccnc5cc(Cl)ccc45)nn3)c12 [Compound 45, 7-Chloro-N-(2-(4-((1-isopropyl-9H-pyrido[3,4-b]indol-9-yl)methyl)-1H-1,2,3-triazol-1-yl)ethyl)quinolin-4-amine]",15.9 ± 11.5 nM,128000 ± 2700 nM,18.8 ± 9.1 nM,
"CCOc1ccc2c3ccnc(C)c3n(Cc3cn(CCNc4ccnc5cc(Cl)ccc45)nn3)c2c1 [Compound 38, 7-Chloro-N-(2-(4-((7-ethoxy-1-methyl-9H-pyrido[3,4-b]indol-9-yl)methyl)-1H-1,2,3-triazol-1-yl)ethyl)quinolin-4-amine]",18.7 ± 4.7 nM,29600 ± 6000 nM,82.2 ± 2.2 nM,
"CCCOc1ccc2c(c1)c1ccnc(C)c1n2CCNC(=O)CNc1ccnc2cc(Cl)ccc12 [Compound 37, 2-((7-Chloroquinolin-4-yl)amino)-N-(2-(1-methyl-6-propoxy-9H-pyrido[3,4-b]indol-9-yl)ethyl)acetamide]",4.6 ± 0.6 nM,35800 ± 4300 nM,10.5 ± 0.4 nM,
"Cc1nccc2c3ccc(OC(C)C)cc3n(Cc3cn(CCNc4ccnc5cc(Cl)ccc45)nn3)c12 [Compound 40, 7-Chloro-N-(2-(4-((7-isopropoxy-1-methyl-9H-pyrido[3,4-b]indol-9-yl)methyl)-1H-1,2,3-triazol-1-yl)ethyl)quinolin-4-amine]",25 ± 3.3 nM,26900 ± 900 nM,33.3 ± 1.6 nM,
"CCCOc1ccc2c3ccnc(C)c3n(CCNC(=O)CNc3ccnc4cc(Cl)ccc34)c2c1 [Compound 34, 2-((7-Chloroquinolin-4-yl)amino)-N-(2-(1-methyl-7-propoxy-9H-pyrido[3,4-b]indol-9-yl)ethyl)acetamide]",11 ± 1.5 nM,18200 ± 1800 nM,17.7 ± 8.7 nM,"ΔInt HSA [3]: (62.8); log Ks toward AT-DNA and AU-RNA (poly(dAdT)2): 4–5; log Ks p(dA-dT)2 (poly(dAdT)2; pH 7): 5.2; ΔInt p(dA-dT)2 (poly(dAdT)2; ΔInt = Int(100% complex)/Int0): (2.28); log Ks toward GC-containing DNAs (calf thymus (ct)-DNA): 6–7; log Ks ctDNA (calf thymus (ct)-DNA): 7.3; ΔInt ctDNA (calf thymus (ct)-DNA): (0.57); Kd [4]: 794 nM; log Ks pApU ([5]; estimation only, almost linear emission change, pH 7.0, sodium cacodylate buffer, I = 0.05 M): >4 ^c"
"CCOc1ccc2c3ccnc(C)c3n(CCNC(=O)CNc3ccnc4cc(Cl)ccc34)c2c1 [Compound 33, 2-((7-Chloroquinolin-4-yl)amino)-N-(2-(7-ethoxy-1-methyl-9H-pyrido[3,4-b]indol-9-yl)ethyl)acetamide]",4.7 ± 1.3 nM,,6.5 ± 2.5 nM,
"COc1ccc2c(c1)c1ccnc(C)c1n2CCNC(=O)CNc1ccnc2cc(Cl)ccc12 [Compound 36, 2-((7-Chloroquinolin-4-yl)amino)-N-(2-(6-methoxy-1-methyl-9H-pyrido[3,4-b]indol-9-yl)ethyl)acetamide]",16.6 ± 2.1 nM,24300 ± 3400 nM,36.7 ± 4 nM,
"CCc1nccc2c3ccccc3n(Cc3cn(CCNc4ccnc5cc(Cl)ccc45)nn3)c12 [Compound 43, 7-Chloro-N-(2-(4-((1-ethyl-9H-pyrido[3,4-b]indol-9-yl)methyl)-1H-1,2,3-triazol-1-yl)ethyl)quinolin-4-amine]",88.4 ± 0.5 nM,68200 ± 6100 nM,204 ± 73.2 nM,
COc1ccc2c3ccnc(C)c3n(CCNC(=O)CNc3ccnc4cc(Cl)ccc34)c2c1 [A],,,,IC50 [6]: 2 ± 0.3 nM; IC50 [7]: 16.2 ± 2.83 nM
"CCCOc1ccc2c3ccnc(C)c3n(Cc3cn(CCNc4ccnc5cc(Cl)ccc45)nn3)c2c1 [Compound 39, 7-Chloro-N-(2-(4-((1-methyl-7-propoxy-9H-pyrido[3,4-b]indol-9-yl)methyl)-1H-1,2,3-triazol-1-yl)ethyl)quinolin-4-amine]",6.8 ± 4 nM,14400 ± 1700 nM,20.1 ± 2.2 nM,"emission response to AT-DNA (poly(dAdT)2): completely insensitive; log Ks toward GC-containing DNAs (calf thymus (ct)-DNA): 4–5; log Ks ctDNA (calf thymus (ct)-DNA): 5.5; ΔInt ctDNA (calf thymus (ct)-DNA): (0.59); Kd [4]: 6310 nM and 7940 nM; emission response to AU-RNA ([5]; compound 5 µM, fluorimetric titration): completely insensitive"
"Cc1nccc2c3ccc(OC(C)C)cc3n(CCNC(=O)CNc3ccnc4cc(Cl)ccc34)c12 [Compound 35, 2-((7-Chloroquinolin-4-yl)amino)-N-(2-(7-isopropoxy-1-methyl-9H-pyrido[3,4-b]indol-9-yl)ethyl)acetamide]",28.1 ± 0.5 nM,127000 ± 31500 nM,26.5 ± 4.5 nM,
COc1ccc2c3ccnc(C)c3n(Cc3cn(CCNc4ccnc5cc(Cl)ccc45)nn3)c2c1 [B],,,,IC50 [6]: 11.6 ± 3.8 nM; IC50 [7]: 204 ± 9.89 nM
"CCCc1nccc2c3ccccc3n(Cc3cn(CCNc4ccnc5cc(Cl)ccc45)nn3)c12 [Compound 44, 7-Chloro-N-(2-(4-((1-propyl-9H-pyrido[3,4-b]indol-9-yl)methyl)-1H-1,2,3-triazol-1-yl)ethyl)quinolin-4-amine]",96.9 ± 1.5 nM,68900 ± 4300 nM,214 ± 71.8 nM,
"COc1ccc2c(c1)c1ccnc(C)c1n2Cc1cn(CCNc2ccnc3cc(Cl)ccc23)nn1 [Compound 41, 7-Chloro-N-(2-(4-((6-methoxy-1-methyl-9H-pyrido[3,4-b]indol-9-yl)methyl)-1H-1,2,3-triazol-1-yl)ethyl)quinolin-4-amine]",18.5 ± 6.1 nM,32100 ± 1100 nM,98.7 ± 36.3 nM,
